Measurements reported in patent publication US20160374979A1, “Method of Treatment of Alopecia with Monoterpenoids” (CELLMID LIMITED, priority 2013, published 2016).
“Also recorded” adds a separate entry of the source.

Legend:
[1] = tested on: FGF-5-dependent cell proliferation (FR-BaF3 cells expressing FGFR-1c); experiment: FR-Ba/F3 cell proliferation/viability assay in the presence of FGF-5 (CCK-8); format: cell-based, murine; settings: for Suppression of FGF-5-dependent cell proliferation and viability: FR-BaF3 cells, in words (FIGS. 1(a)-1(h)); for FGF-5 Specificity IL-1/FGF-5: ratio of the IC50 with IL-3 to the IC50 with FGF-5, BR: less reproducible; for FGF-5-inhibitory activity (in words): judged from FR-BaF3 result
Experimental: Ba/F3 is a murine interleukin-3 (IL-3)-dependent pro-B cell line. […] That is, compounds were tested for their ability to modulate proliferation of FR-Ba/F3 cells in the presence of recombinant human FGF-5 (rhFGF-5) prepared according to Maeda et al., Nishi Nihon Hifuka, 69(1): 81-86, 2007.
Briefly, a suitable plasmid expressing FGFR-1c was introduced into […] ER-Ba/F3 cells, and the cells were maintained in RPMI RPMI-1640 with 10% FBS and 1.3×10^−17 M of murine IL-3 (Sigma, St Louis, […].) containing antibiotic G418 sulfate (Promega, Medison, Wis.). The inventors compared proliferation of FR/BaF3 cells in culture medium containing IL3 or FGF-5 and a different concentration in the range from 0.005% (w/v) to 1.0% (w/v) of each test compound listed in Example 1. The FR-BaF3 cells were seeded at 5×10^4/mL cells per well in 96-well, micro-culture plates (Falcon) in RPMI-1640 culture medium containing 10% fetal bovine serum, 5 μg/mL heparin. Recombinant human FGF-5 (rhFGF-5; 1 μg/mL) was added to one group, and IL-3 (0.2 ng/mL) (Sigma) was added to another group. The test compounds were then introduced to the micro-culture plate wells. Total volume of media per well was 100 μl. Control groups lacking test compound were also prepared for each of the IL-3-supplemented and FGF-5-supplemented samples. The plates were then incubated at 37° C. in 5% CO2 for 3 days.
After 3 days, colorimetric assays were performed using a Cell Counting Kit-8 (CCK-8) (Wako) according to the manufacturer's instructions to measure cell proliferation or suppression thereof by the test compound at varying concentrations. Briefly, 10 μl (1:2 dilution) of the CCK-8 reagent was added to each micro-culture plate well after which time the plates were incubated at […] for 3 hours. Absorbance at 450 nm was then measured using a microplate reader. Cell viability and proliferation for the IL-3-supplemented and FGF-5-supplemented groups was calculated as a measure of the optical density (OD) of cells treated with a test compound relative to the OD of the respective untreated controls, excluding the OD of blank controls (media only). Dose response curves were plotted and the respective inhibitory concentrations (IC50) for the test compounds were determined.

[2] = tested on: Alkaline Phosphatase (ALP) activity in dermal papilla (DP) cells treated with FGF-5; experiment: Dermal papilla alkaline phosphatase (DP-ALP) cell assay; format: cell-based, human; settings: for relative ALP activity of DP cells treated FGF-5: 0.005-0.5 mg/ml, GSK3 inhibitor IX + rhFGF-5 1 μg/mL, 3 days, absorbance 490 nm; for FGF-5-inhibitory activity ranked from most active to least active by DP-ALP assay: rank order
Experimental: Dermal papilla cells were prepared according to the methods described in WO2013/105417, Briefly, hairs were pulled from the scalp of a healthy subject showing normal non-alopecia hair growth using tweezers. Hair follicles with dermal papilla were thus obtained at a rate of approximately one for every 100 hairs pulled. The hair follicles with dermal papilla were separated from the hair using tweezers and transferred into a saline for inspection under a microscope. Under a microscope, each dermal papilla was isolated from a respective hair follicle using tweezers and a scalpel. Approximately 2000 isolated dermal papilla cells were then transferred to a 35 mm cell culture dish together 1-2 ml of cell culture medium, after which time the cells were cultured at 37° C. to produce a primary cell culture of dermal papilla. The cell culture medium consisted of approximately 90% DMEM medium, 10% fetal bovine serum (final concentration: 10%), FGF2 (final, concentration: 10 ng/ml), and penicillin-streptornycin solution (final concentration: 1 μg/ml) for every 2 mL of medium. Cell culture conditions were maintained for more than 14 days until dermal papilla cells covered approximately 40% of the area of the 35 mm culture dish, at which time subcultures were performed. To prepare the subcultures, the cell culture medium was removed from the 35 mm culture dish and the adherent cells were washed once with 2 ml of saline (at room temperature). 1 ml Trypsin-EDTA solution (0.1% trypsin and 0.02% EDTA) was then added to the 35 mm culture dish and left to stand for 4 minutes at 37° C. Dissociated dermal papilla cells were then recovered from the 35 mm dish, and seeded to a new 100 mm dish, and cultured in media under the same conditions as for the primary cell culture described above.
When the dermal papilla cells covered approximately 70-80% of the area of each 100 mm culture dish, the sub-confluent cells were subcultured as before. The process was repeated until sufficient cells were obtained to screen compounds of interest.
Once sufficient DP cells were obtained, the cells were harvested to provide a cell suspension. To harvest the DP cells, the cell culture medium was removed from the culture dish, and the adherent cells were washed with saline at room temperature. Trypsin-EDTA solution was then added under conditions described supra to dissociate the cells from the cell culture dish. Approximately 5×10^5 of the dissociated cells were resuspended in 500 ml of assay medium containing 445 ml of DMEM medium, 50 ml of 10% fetal calf serum and 5 ml of antibiotic.
Aliquots of the cell suspension were transferred to the wells of cell culture dishes, and a single monoterpenoid listed in Example 1 e.g., (−)-4-terpinen-4-ol, (+)-4-terpinen-4-ol. (±)-4-terpinen-4-ol, α-terpineol, nonanal, linalyl acetate or piperitone, is added to each well at a concentration of 0.005 (mg/ml) or 0.01 (mg/ml) or 0.05 (mg/ml) or 0.1 (mg/ml) or 0.5 (mg/ml). Cell suspensions were transferred to wells of a further cell culture dish to which minoxidil was then added at a concentration of 0.005 (mg/ml) or 0.01 (mg/ml) or 0.05 (mg/ml) or 0.1 (mg/ml) or 0.5 (mg/ml). A Wnt/β-catenin pathway activation agent e.g., Wnt3a or GSK-3 Inhibitor IX, as added to each of the cell cultures to produce an “activated cell culture”. Control cell cultures containing the same monoterpenoid compound or minoxodil, but lacking the Wnt/β-cinenin pathway activation agent, were processed in parallel. These activated and control cell cultures were divided further into duplicate cell culture samples either lacking FGF-5 or to which recombinant human FGF-5 (rhFGF-5; 1 μg/mL)) was added.
The cell culture samples were each cultured at 37° C. for 3 days under atmosphere containing less than 5% CO2. […]

SMILES | Suppression of FGF-5-dependent cell proliferation and viability [1] | FGF-5 Specificity IL-1/FGF-5 [1] | FGF-5-inhibitory activity (in words) [1] | relative ALP activity of DP cells treated FGF-5 [2] | FGF-5-inhibitory activity ranked from most active to least active by DP-ALP assay [2] | FGF-5-inhibitory activity (in words) ([1]; listed as (−)-terpinen-4-ol)
C=C(C)C1CC=C(C)C(O)C1 (stereo not drawn) [l-Carveol, 2-Methyl-5-(1-methylethenyl)-2-cyclohexen-1-ol] | Suppression of FGF-5-dependent cell proliferation and viability was observed | 2 |  |  |  | 
C=CC(C)(O)CCC=C(C)C (stereo not drawn) [Linalool, 3,7-Dimethyl-1,6-octadien-3-ol] | Suppression of FGF-5-dependent cell proliferation and viability was observed | 30> (BR) |  |  |  | 
CC(=O)OC/C=C(\C)CCC=C(C)C [Geranyl acetate, (2E)-3,7-Dimethyl-2,6-octadien-1-yl acetate] | Suppression of FGF-5-dependent cell proliferation and viability was observed | 8 (BR) |  |  |  | 
CC1=CC[C@](O)(C(C)C)CC1 [(+)-4-Terpinen-4-ol, (1S)-1-Isopropyl-4-methyl-3-cyclohexen-1-ol] | Suppression of FGF-5-dependent cell proliferation and viability was observed | 9.1> | potent FGF-5-inhibitory active substances | increased relative ALP activity | Piperitone>(−)-terpinen-4-ol>(±)-Terpinen-4β-Terpineol> (+)-Terpinen-4-ol > Linalyl Acetate | 
CC1=CCC(C(C)(C)O)CC1 (stereo not drawn) [α-Terpineol, 2-(4-Methyl-3-cyclohexen-1-yl)-2-propanol] | Suppression of FGF-5-dependent cell proliferation and viability was observed | 5> | potent FGF-5-inhibitory active substances | increased relative ALP activity | Piperitone>(−)-terpinen-4-ol>(±)-Terpinen-4β-Terpineol> (+)-Terpinen-4-ol > Linalyl Acetate | 
C=CC(C)(CCC=C(C)C)OC(C)=O (stereo not drawn) [Linalyl acetate, 3,7-Dimethyl-1,6-octadien-3-yl acetate] | Suppression of FGF-5-dependent cell proliferation and viability was observed |  | potent FGF-5-inhibitory active substances |  | Piperitone>(−)-terpinen-4-ol>(±)-Terpinen-4β-Terpineol> (+)-Terpinen-4-ol > Linalyl Acetate | 
CC1=CC[C@@](O)(C(C)C)CC1 [(−)-4-Terpinen-4-ol, (R)-1-Isopropyl-4-methyl-3-cyclohexen-1-ol] | Suppression of FGF-5-dependent cell proliferation and viability was observed | 2> | potent FGF-5-inhibitory active substances | high alkaline phosphatase activity; also recorded: higher alkaline phosphatase activity in dermal papillae than a racemic mixture of terpinen-4-al or (+)-Terpinen-4-ol; also recorded: increased relative ALP activity | Piperitone>(−)-terpinen-4-ol>(±)-Terpinen-4β-Terpineol> (+)-Terpinen-4-ol > Linalyl Acetate | high FGF-5 inhibitory activity; also recorded: higher FGF-5 inhibitory activity than (+)-terpinen-4-ol
CCCCCCCCC=O [Nonanal, reference compound] |  | 9 | potent FGF-5-inhibitory active substances |  |  | 
CC1=CCC(O)(C(C)C)CC1 (racemic) [(±)-4-Terpinen-4-ol, 1-Isopropyl-4-methyl-3-cyclohexen-1-ol] |  |  | potent FGF-5-inhibitory active substances | increased relative ALP activity | Piperitone>(−)-terpinen-4-ol>(±)-Terpinen-4β-Terpineol> (+)-Terpinen-4-ol > Linalyl Acetate | 
